Where two headings read alike, the source gives them in different places.
Test system: progressive prostatic cancer in stage 4 with confirmed bone metastasis

## [HH] [hydrogen gas, hydrogen]
About 1 month after suction started, hydrogen 6.6% by volume, 60 to 90 minutes/day, with bicalutamide, Flivas OD, initial 92.5
  PSA value: 12.74 ng/mL
About 2 months after suction started, with internal medicines, before the anticancer agent infusion
  PSA value: 7.53 ng/mL
About 12 months after suction started, visually inspected, combined therapy
  shade densities at the parts of bone metastasis, whole body scintigraphy: a half or less
About 12.5 months after suction started, with internal medicines, docetaxel infusions and hormone injections
  PSA value: 1.69 ng/mL

— patent US20200078393A1, “COMPOSITION COMPRISING HYDROGEN GAS FOR SUPPRESSION OR PREVENTION OF CANCER METASTASIS” (MiZ Company Limited, priority 2018, published 2020)
